The values below come from patent publication US8017612B2, “Piperazine compound and use thereof as a HCV polymerase inhibitor” (priority 2006, dated 2011).

The target of experiment [1] is T1, HCV polymerase (NS5B) type 1a (Hepatitis C virus genotype 1a, UniProt P26664).
T1 construct: made in house; host or cells: Escherichia coli (by the 'similar method' of the 1b enzyme)
As to the kind of experiment: Assay of enzyme (HCV polymerase) inhibitory activity, type 1a enzyme. Particulars: HCV polymerase inhibitory activity (IC50), 1a, type 1a enzyme 1.5 μg/ml, 25° C., 60 min. Type of experiment: biochemical, HCV type 1a (cloned from the blood of patients). In short, it runs like this: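 NS5B Δ47 C-term His6 (type 1a, 1.5 μg/ml); substrate RNA 5 μg/ml; ATP/GTP/CTP 50 μM, UTP 2 μM + [5,6-3H]UTP; Tris pH 7.5, MgCl2 5 mM; 25° C, 60 min. TCA/pyrophosphate stop, GF/B filter, scintillation. IC50 vs no-compound control.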

Experiment [2] addresses T2, HCV polymerase (NS5B) type 1b (Hepatitis C virus genotype 1b, UniProt P26663).
T2 construct: a region encoding NS5B (J Virol 1991 March, 65(3), 1105-13, 544 amino acids after deletion of 47 amino acids on the C-terminal); 6xHis (C); made in house; host or cells: Escherichia coli
Briefly: Assay of enzyme (HCV polymerase) inhibitory activity, type 1b enzyme. Conditions: HCV polymerase inhibitory activity (IC50), 1b, type 1b enzyme 0.5 μg/ml, 25° C., 60 min. Type of experiment: biochemical, HCV BK strain (type 1b). In short, it runs like this: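 Rxn: NS5B 1b (BK, ΔC47, His6) 0.5 μg/ml; substrate RNA 5 μg/ml; ATP/GTP/CTP 50 μM, UTP 2 μM + [5,6-3H]UTP; 20 mM Tris pH 7.5, 5 mM MgCl2, 50 mM NaCl, 1 mM EDTA/DTT. 25 °C, 60 min. Stop with TCA/pyrophosphate, filter, scintillation count; IC50 vs. untreated.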

Counter-ions that a name gives are not always drawn.

Consider `CC(C)c1ccc(CNC(=O)[C@H]2CN(C(=N)N)CCN2S(=O)(=O)c2ccc(C(F)(F)F)cc2)cc1` [Example 313, (R)-4-carbamimidoyl-1-(4-trifluoromethyl-benzenesulfonyl)-piperazine-2-carboxylic acid 4-isopropyl-benzylamide hydrochloride], for which the IC50 in experiment [1] and in experiment [2] was < 100 nM in each case.

`CC(C)c1ccc(CNC(=O)[C@H]2CN(C(=O)Nc3ccnc(C(=O)O)c3)CCN2S(=O)(=O)c2ccc(C(F)(F)F)cc2)cc1` [Example 314, 4-{[(R)-3-(4-isopropyl-benzylcarbamoyl)-4-(4-trifluoromethyl-benzenesulfonyl)-piperazine-1-carbonyl]-amino}-pyridine-2-carboxylic acid hydrochloride]: the IC50 in experiment [1] and in experiment [2] was 100 to 1000 nM in each case.

Consider `CC(C)c1ccc(CNC(=O)[C@H]2CN(c3ncc(C(=O)O)s3)CCN2S(=O)(=O)c2ccc(C(F)(F)F)cc2)cc1` [Example 315, 2-[(R)-3-(4-isopropyl-benzylcarbamoyl)-4-(4-trifluoromethyl-benzenesulfonyl)-piperazin-1-yl]-thiazole-5-carboxylic acid], for which the IC50 in experiment [1] was 100 to 1000 nM; in experiment [2] it was < 100 nM.

`CCOC(=O)CCCCCC(=O)N1CCN(S(=O)(=O)c2ccc(C(F)(F)F)cc2)[C@@H](C(=O)NCc2ccc(C(C)C)cc2)C1` [Example 316, 7-[(R)-3-(4-isopropyl-benzylcarbamoyl)-4-(4-trifluoromethyl-benzenesulfonyl)-piperazin-1-yl]-7-oxo-heptanoic acid ethyl ester]: the IC50 in experiment [1] and in experiment [2] was 100 to 1000 nM throughout.

Take `CC(C)c1ccc(CNC(=O)[C@H]2CN(C(=O)CCCCCC(=O)O)CCN2S(=O)(=O)c2ccc(C(F)(F)F)cc2)cc1` [Example 317, 7-[(R)-3-(4-isopropyl-benzylcarbamoyl)-4-(4-trifluoromethyl-benzenesulfonyl)-piperazin-1-yl]-7-oxo-heptanoic acid]: the IC50 in experiment [1] and in experiment [2] was 100 to 1000 nM in each case.

Consider `CC(C)c1ccc(CNC(=O)[C@H]2CN(C(=O)Nc3ccncc3)CCN2S(=O)(=O)c2ccc(OC(F)(F)F)cc2)cc1` [Example 318, (R)-4-(4-trifluoromethoxy-benzenesulfonyl)-piperazine-1,3-dicarboxylic acid 3-(4-isopropyl-benzylamide) 1-pyridin-4-ylamide], for which the IC50 in experiment [1] and in experiment [2] was < 100 nM each time.

For the compound `CCCc1ccc(S(=O)(=O)N2CCN(c3nc(C)c(C(=O)OC(C)(C)C)s3)C[C@@H]2C(=O)NCc2ccc(C(C)C)cc2)cc1` [Example 319, 2-[(R)-3-(4-isopropyl-benzylcarbamoyl)-4-(4-propyl-benzenesulfonyl)-piperazin-1-yl]-4-methyl-thiazole-5-carboxylic acid tert-butyl ester], the IC50 in experiment [1] is > 1000 nM; in experiment [2], 100 to 1000 nM.

On to `Cc1nc(N2CCN(S(=O)(=O)c3ccc(OC(F)(F)F)cc3)[C@@H](C(=O)NCc3ccc(C(C)C)cc3)C2)sc1C(=O)OC(C)(C)C` [Example 320, 2-[(R)-3-(4-isopropyl-benzylcarbamoyl)-4-(4-trifluoromethoxy-benzenesulfonyl)-piperazin-1-yl]-4-methyl-thiazole-5-carboxylic acid tert-butyl ester], for which the 50% inhibitory concentration (IC50) in experiment [1] and in experiment [2] was > 1000 nM each time.

Take `CCc1ccc(CNC(=O)[C@H]2CN(C(C)=O)CCN2S(=O)(=O)c2ccc(C(C)C)cc2)c(C)c1` [Example 321, (R)-4-acetyl-1-(4-isopropyl-benzenesulfonyl)-piperazine-2-carboxylic acid 4-ethyl-2-methyl-benzylamide]: the IC50 in experiment [1] and in experiment [2] was < 100 nM in each case.

Consider `Cc1nc(N2CCN(S(=O)(=O)c3ccc(OC(F)(F)F)cc3)[C@@H](C(=O)NCc3ccc(C(C)C)cc3)C2)sc1C(=O)O` [Example 322, 2-[(R)-3-(4-isopropyl-benzylcarbamoyl)-4-(4-trifluoromethoxy-benzenesulfonyl)-piperazin-1-yl]-4-methyl-thiazole-5-carboxylic acid], for which the IC50 in experiment [1] and in experiment [2] was < 100 nM throughout.

For the compound `CC(=O)N1CCN(S(=O)(=O)c2ccc(C(C)C)cc2)[C@@H](C(=O)NCc2ccc(C3CC3)cc2C)C1` [Example 323, (R)-4-acetyl-1-(4-isopropyl-benzenesulfonyl)-piperazine-2-carboxylic acid 4-cyclopropyl-2-methyl-benzylamide], the 50% inhibitory concentration (IC50) in experiment [1] and in experiment [2] was < 100 nM in each case.

Turning to `CC(=O)N1CCN(S(=O)(=O)c2ccc(OC(F)(F)F)c(CCC(=O)O)c2)[C@@H](C(=O)NCc2ccc(C(C)C)cc2)C1` [Example 324, 3-{5-[(R)-4-acetyl-2-(4-isopropyl-benzylcarbamoyl)-piperazine-1-sulfonyl]-2-trifluoromethoxy-phenyl}-propionic acid], the IC50 in experiment [1] was < 100 nM; in experiment [2], 100 to 1000 nM.

With `CCOC(=O)c1cnc(N2CCN(S(=O)(=O)c3ccc(C(F)(F)F)cc3)[C@@H](C(=O)NCc3ccc(C(C)C)cc3)C2)nc1O` [Example 325, 4-hydroxy-2-[(R)-3-(4-isopropyl-benzylcarbamoyl)-4-(4-trifluoromethyl-benzenesulfonyl)-piperazin-1-yl]-pyrimidine-5-carboxylic acid ethyl ester], the figures for the IC50 in experiment [1] and in experiment [2] were > 1000 nM and 100 to 1000 nM, respectively.

For the compound `CC(C)c1ccc(CNC(=O)[C@H]2CN(c3ccc(C(=O)OC(C)(C)C)cn3)CCN2S(=O)(=O)c2ccc(C(F)(F)F)cc2)cc1` [Example 326, 6-[(R)-3-(4-isopropyl-benzylcarbamoyl)-4-(4-trifluoromethyl-benzenesulfonyl)-piperazin-1-yl]-nicotinic acid tert-butyl ester], the IC50 in experiment [1] and in experiment [2] was 100 to 1000 nM throughout.

With `CC(C)c1ccc(CNC(=O)[C@H]2CN(c3ccc(C(=O)O)cn3)CCN2S(=O)(=O)c2ccc(C(F)(F)F)cc2)cc1` [Example 327, 6-[(R)-3-(4-isopropyl-benzylcarbamoyl)-4-(4-trifluoromethyl-benzenesulfonyl)-piperazin-1-yl]-nicotinic acid trifluoroacetate], the IC50 in experiment [1] and in experiment [2] was < 100 nM throughout.

As to `CC(C)c1ccc(CNC(=O)[C@H]2CN(c3ncc(C(=O)O)s3)CCN2S(=O)(=O)c2ccc(OC(F)(F)F)cc2)cc1` [Example 328, 2-[(R)-3-(4-isopropyl-benzylcarbamoyl)-4-(4-trifluoromethoxy-benzenesulfonyl)-piperazin-1-yl]-thiazole-5-carboxylic acid], the IC50 in experiment [1] and in experiment [2] was < 100 nM in each case.

Turning to `CCCc1ccc(S(=O)(=O)N2CCN(c3ncc(C(=O)O)s3)C[C@@H]2C(=O)NCc2ccc(C(C)C)cc2)cc1` [Example 329, 2-[(R)-3-(4-isopropyl-benzylcarbamoyl)-4-(4-propyl-benzenesulfonyl)-piperazin-1-yl]-thiazole-5-carboxylic acid], the IC50 in experiment [1] and in experiment [2] was < 100 nM in each case.

Consider `CCCc1ccc(S(=O)(=O)N2CCN(c3nc(C)c(C(=O)OC(C)(C)C)s3)C[C@@H]2C(=O)NCc2ccc(C(C)C)cc2C)cc1` [Example 330, 2-[(R)-3-(4-isopropyl-2-methyl-benzylcarbamoyl)-4-(4-propyl-benzenesulfonyl)-piperazin-1-yl]-4-methyl-thiazole-5-carboxylic acid tert-butyl ester], for which the IC50 is > 1000 nM in experiment [1] and 100 to 1000 nM in experiment [2].

For `CCCc1ccc(S(=O)(=O)N2CCN(c3nc(C)c(C(=O)O)s3)C[C@@H]2C(=O)NCc2ccc(C(C)C)cc2C)cc1` [Example 331, 2-[(R)-3-(4-isopropyl-2-methyl-benzylcarbamoyl)-4-(4-propyl-benzenesulfonyl)-piperazin-1-yl]-4-methyl-thiazole-5-carboxylic acid], the IC50 in experiment [1] and in experiment [2] was < 100 nM throughout.

In the case of `CC(C)c1ccc(CNC(=O)[C@H]2CN(C(=O)Nc3nncs3)CCN2S(=O)(=O)c2ccc(C(F)(F)F)cc2)cc1` [Example 332, (R)-4-(4-trifluoromethyl-benzenesulfonyl)-piperazine-1,3-dicarboxylic acid 3-(4-isopropyl-benzylamide) 1-[1,3,4]thiadiazol-2-ylamide], the IC50 is 100 to 1000 nM in experiment [1] and < 100 nM in experiment [2].

Turning to `CCCc1ccc(S(=O)(=O)N2CCN(c3nc(C)c(C(N)=O)s3)C[C@@H]2C(=O)NCc2ccc(C(C)C)cc2)cc1` [Example 333, (R)-4-(5-carbamoyl-4-methyl-thiazol-2-yl)-1-(4-propyl-benzenesulfonyl)-piperazine-2-carboxylic acid 4-isopropyl-benzylamide], the IC50 in experiment [1] and in experiment [2] was < 100 nM each time.

On to `CCOC(=O)c1nnc(NC(=O)N2CCN(S(=O)(=O)c3ccc(C(F)(F)F)cc3)[C@@H](C(=O)NCc3ccc(C(C)C)cc3)C2)o1` [Example 334, 5-{[(R)-3-(4-isopropyl-benzylcarbamoyl)-4-(4-trifluoromethyl-benzenesulfonyl)-piperazine-1-carbonyl]-amino}-[1,3,4]oxadiazole-2-carboxylic acid ethyl ester], for which the IC50 in experiment [1] and in experiment [2] was > 1000 nM each time.
